The target in one series is CYP2D6 (Homo sapiens, UniProt P10635). The note with it: 2 mg/kg debrisoquine by gavage; mice repopulated with iMPC-Heps or aHeps. From the text:
Scale bar=100 μm. […] Scale bars=100 μm. […] Scale bars=100 μm.

Series [1] relates to iMPC-EPCs. In words: Expansion of iMPC-EPC colonies.
Series [2] concerns iMPC-EPCs. In words: Hepatocyte differentiation of iMPC-EPCs, ALB gene expression by qRT-PCR. Conditions: day 18 of hepatocyte specification; particularly when applied together. (In general: Real-time PCR tracks product formation cycle by cycle.)
Experimental: Error bars represent SEM of technical replicates (n=3).
For qRT-PCR analysis, total RNA was extracted using the miRNeasy Mini Kit (Qiagen) or RNeasy Plus Mini Kit in combination with QIAshredder (Qiagen). First-strand reverse transcription was performed with 0.5-1 μg RNA using the iScript cDNA Synthesis Kit (BioRad) or qScript cDNA Supermix (Quanta Biosciences). qRT-PCR was performed using PerfeCTa SYBR Green SuperMix (Quanta) or iQ SYBR Green Supermix (Bio-Rad) on an Applied Biosciences ViiA 7 Real-Time PCR System (Invitrogen). aHeps purchased from Yecuris or the Liver Tissue Cell Distribution System (LTCDS) were shipped overnight in suspension, centrifuged for 5 minutes at 300×g immediately after arrival, and stored as cell pellets at −80° C. prior to RNA extraction.
To improve hepatocyte differentiation, small molecules were screened for induction of ALB gene expression.
In series [3] the test system is HDAC activity in HeLa extracts. Conditions: read-out: IC50 for inhibition of HDAC activity; cited from earlier work.
Series [4] concerns histone deacetylases (HDACs). The note with it: isoform not stated; read-out: IC50 (histone deacetylase inhibition); cited from earlier work.
The subject of a further series is presenilase. The note with it: at higher concentrations (20-400 μM); cited from earlier work.
In the next series the target is γ-secretase. The note with it: for total β-amyloid; cited from earlier work.
The target of another series is SAPK2/p38 (Homo sapiens, UniProt Q16539). Conditions: CK1 and ALK5 inhibitor versus SAPK2/p38; cited from earlier work.
SAPK2/p38, sequence (Q16539 whole entry): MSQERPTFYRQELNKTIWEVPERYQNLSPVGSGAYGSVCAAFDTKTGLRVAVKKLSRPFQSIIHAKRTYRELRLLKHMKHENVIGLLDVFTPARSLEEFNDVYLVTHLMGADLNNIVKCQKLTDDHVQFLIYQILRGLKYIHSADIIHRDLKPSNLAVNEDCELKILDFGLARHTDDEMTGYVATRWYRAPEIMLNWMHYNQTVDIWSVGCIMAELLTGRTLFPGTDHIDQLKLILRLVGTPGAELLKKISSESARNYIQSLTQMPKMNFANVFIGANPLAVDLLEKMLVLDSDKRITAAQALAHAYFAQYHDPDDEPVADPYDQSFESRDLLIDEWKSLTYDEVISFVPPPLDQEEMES
The test system of series [5] is Human newborn fibroblasts (CRL-2097, ATCC). Put plainly: Reprogramming of newborn fibroblasts to endoderm, FOXA2-positive colonies by immunostaining. Conditions: day 28; added to CHIR/Activin A reprogramming medium.
Experimental: The small molecules tested included combinations of CHIR99021 (CH), dilauroyl phosphatidylcholine (DLPC), sodium butyrate (NaB), parnate (Par), and RG108 (RG). […] Medium containing Activin A was additionally supplemented with the indicated small molecules.
Standard immunostaining was carried out as previously reported. […] Nuclei were visualized by Hoechst (Sigma-Aldrich) staining. Images were captured using a Nikon Eclipse TE2000-U microscope.
Next, EGF and bFGF were replaced with Activin A to induce Nodal signaling and promote endoderm fate (see FIG. 1A). […] To improve the efficiency of endoderm differentiation, the cells were exposed to several small molecules.
Another series addresses T1, calpain II (Homo sapiens, UniProt P17655).
T1 sequence (P17655 1-700): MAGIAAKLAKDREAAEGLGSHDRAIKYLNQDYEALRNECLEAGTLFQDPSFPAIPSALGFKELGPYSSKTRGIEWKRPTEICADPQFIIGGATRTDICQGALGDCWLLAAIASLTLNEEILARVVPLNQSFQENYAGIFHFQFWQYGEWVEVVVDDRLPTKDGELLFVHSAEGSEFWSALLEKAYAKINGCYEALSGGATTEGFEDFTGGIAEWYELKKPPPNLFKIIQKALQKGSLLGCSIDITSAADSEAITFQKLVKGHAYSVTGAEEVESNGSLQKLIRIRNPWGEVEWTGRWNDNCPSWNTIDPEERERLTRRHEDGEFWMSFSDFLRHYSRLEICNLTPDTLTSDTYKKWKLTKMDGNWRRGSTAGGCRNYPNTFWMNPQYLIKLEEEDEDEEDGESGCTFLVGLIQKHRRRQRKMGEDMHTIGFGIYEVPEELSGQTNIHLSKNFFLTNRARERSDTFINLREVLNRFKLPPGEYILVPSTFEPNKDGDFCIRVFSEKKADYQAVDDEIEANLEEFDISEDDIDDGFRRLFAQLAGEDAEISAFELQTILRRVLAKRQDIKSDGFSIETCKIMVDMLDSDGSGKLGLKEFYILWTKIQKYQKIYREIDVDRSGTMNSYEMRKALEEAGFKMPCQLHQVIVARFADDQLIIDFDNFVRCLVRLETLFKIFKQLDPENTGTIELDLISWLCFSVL
T1 sequence (P04632 1-268 partner): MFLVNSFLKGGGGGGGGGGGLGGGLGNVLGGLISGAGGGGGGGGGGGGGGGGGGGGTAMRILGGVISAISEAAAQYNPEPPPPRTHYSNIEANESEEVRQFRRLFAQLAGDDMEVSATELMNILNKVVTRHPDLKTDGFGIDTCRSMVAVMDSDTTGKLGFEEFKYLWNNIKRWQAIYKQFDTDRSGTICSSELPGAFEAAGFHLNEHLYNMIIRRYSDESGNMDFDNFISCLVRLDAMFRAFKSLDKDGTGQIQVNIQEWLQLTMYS
Conditions: purified enzyme assay; read-out: IC50 against calpain II; cited from earlier work.

Numbered stars: 1 amine (or outer) side, 2 acyl side, 3 side chain; on linkers, the order of the positions; unused ones are H or OH. Square brackets hold non-standard residues; d marks the D form. Peptide text beside a SMILES is read from it. * marks the point of attachment. X1 = CC(N[*:1])C(=O)C(F)(F)C(=O)[*:2]; Boc = CC(C)(C)OC(=O)*

Usually IC50 stands for the midpoint of a concentration-inhibition curve.

CYP2D6, sequence (P10635 whole entry): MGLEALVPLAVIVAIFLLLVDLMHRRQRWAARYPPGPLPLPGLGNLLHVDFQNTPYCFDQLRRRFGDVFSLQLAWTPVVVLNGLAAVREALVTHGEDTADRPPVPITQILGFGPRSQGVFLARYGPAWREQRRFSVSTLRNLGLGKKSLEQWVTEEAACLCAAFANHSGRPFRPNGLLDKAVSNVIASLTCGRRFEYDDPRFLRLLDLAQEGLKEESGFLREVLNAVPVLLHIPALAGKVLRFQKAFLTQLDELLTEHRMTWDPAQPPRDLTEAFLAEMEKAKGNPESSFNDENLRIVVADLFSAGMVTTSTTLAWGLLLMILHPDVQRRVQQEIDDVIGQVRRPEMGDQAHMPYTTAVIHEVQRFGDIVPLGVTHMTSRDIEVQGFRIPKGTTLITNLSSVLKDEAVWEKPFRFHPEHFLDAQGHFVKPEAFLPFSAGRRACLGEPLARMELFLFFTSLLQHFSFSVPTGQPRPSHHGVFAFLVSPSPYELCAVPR

Take `N=C(N)N1Cc2ccccc2C(O)C1` (stereo not shown) [4-hydroxydebrisoquine]: the “time of peak plasma level after gavage” value at CYP2D6 worked out at 1 h.
Turning to `Cc1cccc(-c2nn(C(=S)Nc3ccccc3)cc2-c2ccnc3ccccc23)n1` [A83-01, 3-(6-Methyl-2-pyridinyl)-N-phenyl-4-(4-quinolinyl)-1H-pyrazole-1-carbothioamide], in the series with iMPC-EPCs [1] (CHIR99021 combined with A83-01), the iMPC-EPC colony size entry is “increased”. For the same compound, the “induction of ALB gene expression” value in the series with iMPC-EPCs [2] is recorded as “effective”.
`Nc1ccccc1NC(=O)CCCCCCC(=O)Nc1ccccc1` [BML-210, N1-(2-aminophenyl)-N8-phenyl-octanediamide]: the IC50 in [3] is around 80000 nM.
`Cc1c[nH]c(-c2cnc(NCCNc3ccc(C#N)cn3)nc2-c2ccc(Cl)cc2Cl)n1` [CHIR99021, 6-(2-(4-(2,4-dichlorophenyl)-5-(4-methyl-1H-imidazol-2-yl)pyrimidin-2-ylamino)ethylamino)nicotinonitrile]: in the series on iMPC-EPCs [1] (CHIR99021 combined with A83-01), the iMPC-EPC colony size result is given as “increased”.
Take `CC1(C)NC(=O)C(CCCCCC(=O)[C@H]2CO2)NC(=O)C2CCCN2C(=O)[C@@H](Cc2ccccc2)NC1=O` (stereo partly drawn) [Chlamydocin, (3R)-3-benzyl-6,6-dimethyl-9-[6-[(2R)-oxiran-2-yl]-6-oxohexyl]-1,4,7,10-tetrazabicyclo[10.3.0]pentadecane-2,5,8,11-tetrone]: the IC50 in series [4] was around 0.15 nM.
On to `C[C@H](NC(=O)Cc1cc(F)cc(F)c1)C(=O)N[C@H]1N=C(c2ccccc2)c2ccccc2N(C)C1=O` [Compound E], for which, in the series with presenilase, the “effect on presenilase activity” value is “only weakly affects”. The “induction of ALB gene expression” value with iMPC-EPCs [2] was “effective”. Also, at γ-secretase, the IC50 was 0.3 nM.
On to `NC(=O)c1ccc(-c2nc(-c3ccc4c(c3)OCCO4)c(-c3ccccn3)[nH]2)cc1` [D 4476, 4-[4-(2,3-Dihydro-1,4-benzodioxin-6-yl)-5-(2-pyridinyl)-IH-imidazol-2-yl]benzamide], for which, at SAPK2/p38, the “selectivity over SAPK2/p38” value is recorded as “greater than 20 fold”.
As for `CCCCCCCCCCCC(=O)OC[C@H](COP(=O)([O-])OCC[N+](C)(C)C)OC(=O)CCCCCCCCCCC` [Dilauroyl phosphatidylcholine], the “increase in the number of FOXA2-positive colonies” value in series [5] came out at 2 fold.
On to `CCC(C)C(NC(=O)C(NC(=O)OC(C)(C)C)C(C)C)C(=O)NC(C)C(=O)C(F)(F)C(=O)NC(C(=O)NC(C(=O)OC)C(C)CC)C(C)C` (stereo not shown) [Gamma-Secretase Inhibitor II] (Boc-VI[X1]VI-OMe; configuration not given here), for which, at calpain II, the concentration for half-maximal inhibition (IC50) was 100000 nM.
On to `Nc1ccccc1NC(=O)c1ccc(CNc2nccc(-c3cccnc3)n2)cc1` [MGCD0103, N-(2-aminophenyl)-4-[[(4-pyridin-3-ylpyrimidin-2-yl)amino]methyl]benzamide], for which, in series [4], the IC50 is around 100 nM.
In the case of `Nc1ccccc1NC(=O)c1ccc(CNC(=O)OCc2cccnc2)cc1` [MS-27-275, pyridin-3-ylmethyl-N-[[4-[(2-aminophenyl)carbamoyl]phenyl]methyl]carbamate], the IC50 in series [4] is 100 to 1000 nM.
`CC(/C=C/C(=O)NO)=C\[C@@H](C)C(=O)c1ccc(N(C)C)cc1` [Trichostatin A, (R,2E,4E)-6-(4-(dimethylamino)benzoyl)-N-hydroxy-4-methylhepta-2,4-dienamide]: in [4], the IC50 was around 1.8 nM.
For the compound bFGF: basic fibroblast growth factor, in the series on iMPC-EPCs [1] (EGF and bFGF added to CHIR99021 and A83-01), the iMPC-EPC colony size entry is “further increased”.

The values are drawn from patent US9512406B2, “Generating hepatocytes” (The J. David Gladstone Institutes, a testamentary trust …, priority 2013, dated 2016).
